Data reported in US8377884B2, “Variants of C-type natriuretic peptides” (Biomarin Pharmaceutical Inc., priority 2007, dated 2013).
Read-outs that look alike come from different tables or passages of the source. Bridge positions count the residues as written; N and C are the ends. Ends that are not written are not given here. Peptide text beside a SMILES is read from it. PEO12 = monodispersed PEO, 0.6 kDa; PEO24 = monodispersed, 1.2 kDa

Target: T1, NPR-B (Mus musculus, UniProt Q6VVW5)
T1 construct: Murine NIH3T3 cells express endogenously the CNP signaling receptor, NPR-B; endogenous in cells; host or cells: NIH3T3 (murine fibroblasts)
T1 sequence (Q6VVW5 17-1047): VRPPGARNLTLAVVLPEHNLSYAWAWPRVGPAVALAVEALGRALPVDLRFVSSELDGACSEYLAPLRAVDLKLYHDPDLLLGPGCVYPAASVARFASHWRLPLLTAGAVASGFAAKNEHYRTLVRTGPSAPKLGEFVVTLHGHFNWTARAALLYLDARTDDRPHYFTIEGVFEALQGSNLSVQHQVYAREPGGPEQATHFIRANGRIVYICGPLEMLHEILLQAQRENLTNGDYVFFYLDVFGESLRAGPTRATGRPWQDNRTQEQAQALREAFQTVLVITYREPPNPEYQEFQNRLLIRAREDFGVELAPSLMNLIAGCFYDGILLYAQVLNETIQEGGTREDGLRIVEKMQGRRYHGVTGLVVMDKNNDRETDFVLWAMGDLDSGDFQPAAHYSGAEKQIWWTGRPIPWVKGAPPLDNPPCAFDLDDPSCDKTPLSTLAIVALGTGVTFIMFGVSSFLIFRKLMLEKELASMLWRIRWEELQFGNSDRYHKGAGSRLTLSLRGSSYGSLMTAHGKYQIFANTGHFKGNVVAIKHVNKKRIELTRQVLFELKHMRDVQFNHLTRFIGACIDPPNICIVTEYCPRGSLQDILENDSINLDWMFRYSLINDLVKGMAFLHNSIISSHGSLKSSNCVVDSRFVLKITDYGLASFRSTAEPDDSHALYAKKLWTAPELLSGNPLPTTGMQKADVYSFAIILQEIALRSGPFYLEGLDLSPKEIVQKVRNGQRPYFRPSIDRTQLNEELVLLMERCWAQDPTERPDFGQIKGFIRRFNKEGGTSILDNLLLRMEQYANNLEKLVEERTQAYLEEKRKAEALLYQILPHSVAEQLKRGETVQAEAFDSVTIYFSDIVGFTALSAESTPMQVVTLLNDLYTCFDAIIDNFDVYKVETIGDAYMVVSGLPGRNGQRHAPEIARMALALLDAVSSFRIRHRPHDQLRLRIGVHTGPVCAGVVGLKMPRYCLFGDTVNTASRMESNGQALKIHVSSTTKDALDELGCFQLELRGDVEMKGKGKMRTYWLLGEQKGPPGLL
Assay: Stimulation of cGMP production in NIH3T3 cells
Assay type: cell-based, Murine
Conditions: for cGMP response relative to 1 uM CNP22 (%) at 0.01 µM: read-out: cGMP Response rel. to 1 uM CNP22, 10 nM; for cGMP response relative to 1 uM CNP22 (%) at 1 µM: read-out: cGMP Response rel. to 1 uM CNP22, 1 uM

[1] = NIH3T3 cells, 10 nM natriuretic peptide, normalized to cell number and cGMP production with 1 uM wtCNP22
[2] = NIH3T3 cells, 1 uM natriuretic peptide, normalized to cell number and cGMP production with 1 uM wtCNP22

Row | Molecule | cGMP response relative to 1 uM CNP22 (%) at 0.01 µM [1] | cGMP response relative to 1 uM CNP22 (%) at 1 µM [2] | other results
1 | PEO12-CNP22, K4R: CNP22, K4R conjugated at the N-terminus to PEO12 (PEO12-GLSRGCFGLKLDRIGSMSGLGC; disulfide 6-22 (inferred); UniProt P23582 105-126, looked up, variant K4R) |  |  | cGMP Response rel. to 1 uM CNP22, 10 nM [1]: 13; cGMP Response rel. to 1 uM CNP22, 1 uM [2]: 44
2 | CC[C@H](C)[C@@H]1NC(=O)[C@H](CCCNC(=N)N)NC(=O)[C@H](CC(=O)O)NC(=O)[C@H](CC(C)C)NC(=O)[C@H](CCC(N)=O)NC(=O)[C@H](CC(C)C)NC(=O)CNC(=O)[C@H](Cc2ccccc2)NC(=O)[C@@H](NC(=O)CNC(=O)[C@H](CCCNC(=N)N)NC(=O)[C@H](CO)NC(=O)[C@H](CC(C)C)NC(=O)CN)CSSC[C@@H](C(=O)O)NC(=O)CNC(=O)[C@H](CC(C)C)NC(=O)CNC(=O)[C@H](CO)NC(=O)[C@H](CCSC)NC(=O)[C@H](CO)NC(=O)CNC1=O [BG] (H-GLSRGCFGLQLDRIGSMSGLGC-OH; disulfide 6-22) | 9% | 45% | 
3 | CC[C@H](C)[C@@H]1NC(=O)[C@H](CCCNC(=N)N)NC(=O)[C@H](CC(=O)O)NC(=O)[C@H](CC(C)C)NC(=O)[C@H](CCCCN)NC(=O)[C@H](CC(C)C)NC(=O)CNC(=O)[C@@H](Cc2ccccc2)NC(=O)[C@@H](NC(=O)CNC(=O)[C@H](CCCCN)NC(=O)[C@H](CO)NC(=O)[C@H](CC(C)C)NC(=O)CN)CSSC[C@@H](C(=O)O)NC(=O)CNC(=O)[C@H](CC(C)C)NC(=O)CNC(=O)[C@H](CO)NC(=O)[C@H](CCSC)NC(=O)[C@H](CO)NC(=O)CNC1=O [E] |  |  | cGMP response relative to 1 uM CNP22 (%) at 0.01 µM (NIH3T3, […]): 2%; cGMP response relative to 1 uM CNP22 (%) at 1 µM (NIH3T3, […]): 6%
4 | CC[C@H](C)[C@@H]1NC(=O)[C@H](CCCNC(=N)N)NC(=O)[C@H](CC(=O)O)NC(=O)[C@H](CC(C)C)NC(=O)[C@H](CCCCN)NC(=O)[C@H](CC(C)C)NC(=O)CNC(=O)[C@H](Cc2ccccc2)NC(=O)[C@@H](NC(=O)CNC(=O)[C@H](CCCCN)NC(=O)[C@H](CO)NC(=O)[C@H](CC(C)C)NC(=O)CNC(=O)[C@H](CCCCN)NC(=O)[C@H](CCC(N)=O)NC(=O)[C@H](CC(N)=O)NC(=O)[C@H](C)NC(=O)CNC(=O)[C@H](CCCCN)NC(=O)[C@H](Cc2ccc(O)cc2)NC(=O)[C@H](CCCCN)NC(=O)[C@H](CCCNC(=N)N)NC(=O)[C@H](C)NC(=O)[C@H](CC(N)=O)NC(=O)[C@@H]2CCCN2C(=O)[C@H](Cc2c[nH]cn2)NC(=O)[C@H](CCC(=O)O)NC(=O)[C@H](CCC(N)=O)NC(=O)CN)CSSC[C@@H](C(=O)O)NC(=O)CNC(=O)[C@H](CC(C)C)NC(=O)CNC(=O)[C@H](CO)NC(=O)[C@H](CCSC)NC(=O)[C@H](CO)NC(=O)CNC1=O [CT] (H-GQEHPNARKYKGANQKGLSKGCFGLKLDRIGSMSGLGC-OH; disulfide 22-38 (inferred); N-terminus and C-terminus assumed) | 60% | 121% | 
5 | CC[C@H](C)[C@@H]1NC(=O)[C@H](CCCNC(=N)N)NC(=O)[C@H](CC(=O)O)NC(=O)[C@H](CC(C)C)NC(=O)[C@H](CCCCN)NC(=O)[C@H]([C@@H](C)O)NC(=O)CNC(=O)[C@H](Cc2ccccc2)NC(=O)[C@@H](NC(=O)CNC(=O)[C@H](CCCNC(=N)N)NC(=O)[C@H](CO)NC(=O)[C@H](CC(C)C)NC(=O)CN)CSSC[C@@H](C(=O)O)NC(=O)CNC(=O)[C@H](CC(C)C)NC(=O)CNC(=O)[C@H](CO)NC(=O)[C@H](CCSC)NC(=O)[C@H](CO)NC(=O)CNC1=O [AD] (H-GLSRGCFGTKLDRIGSMSGLGC-OH; disulfide 6-22) | 4% | 68% | 
6 | CC[C@H](C)[C@@H]1NC(=O)[C@H](CCCNC(=N)N)NC(=O)[C@H](CC(=O)O)NC(=O)[C@H](CC(C)C)NC(=O)[C@H](CCCCN)NC(=O)[C@H](CC(C)C)NC(=O)CNC(=O)[C@H](Cc2ccccc2)NC(=O)[C@@H](NC(=O)CNC(=O)[C@H](CCCNC(=N)N)NC(=O)[C@H](CO)NC(=O)[C@H](CC(C)C)NC(=O)CNC(=O)[C@H](CCC(N)=O)NC(=O)[C@H](CCC(N)=O)NC(=O)[C@H](CC(N)=O)NC(=O)[C@H](C)NC(=O)CN)CSSC[C@@H](C(=O)O)NC(=O)CNC(=O)[C@H](CC(C)C)NC(=O)CNC(=O)[C@H](CO)NC(=O)[C@H](CCSC)NC(=O)[C@H](CO)NC(=O)CNC1=O [CH] (H-GANQQGLSRGCFGLKLDRIGSMSGLGC-OH; disulfide 11-27 (inferred); N-terminus and C-terminus assumed) | 44 ± 8% | 95 ± 11% | 
7 | CC[C@H](C)[C@@H]1NC(=O)[C@H](CCCNC(=N)N)NC(=O)[C@H](CC(=O)O)NC(=O)[C@H](CC(C)C)NC(=O)[C@H](CCCCN)NC(=O)[C@H](CC(C)C)NC(=O)CNC(=O)[C@H](Cc2ccccc2)NC(=O)[C@@H](NC(=O)CNC(=O)[C@H](CCCCN)NC(=O)[C@H](CO)NC(=O)[C@H](CC(C)C)NC(=O)CNC(=O)[C@H](CCC(N)=O)NC(=O)[C@H](CCC(N)=O)NC(=O)[C@H](CC(N)=O)NC(=O)[C@H](C)NC(=O)CNC(=O)[C@H](CCCCN)NC(=O)[C@H](Cc2ccc(O)cc2)NC(=O)[C@H](CCCCN)NC(=O)[C@H](CCCNC(=N)N)NC(=O)[C@H](C)NC(=O)[C@H](CC(N)=O)NC(=O)[C@@H]2CCCN2C(=O)[C@H](Cc2c[nH]cn2)NC(=O)[C@H](CCC(=O)O)NC(=O)[C@H](CCC(N)=O)NC(=O)CN)CSSC[C@@H](C(=O)O)NC(=O)CNC(=O)[C@H](CC(C)C)NC(=O)CNC(=O)[C@H](CO)NC(=O)[C@H](CCSC)NC(=O)[C@H](CO)NC(=O)CNC1=O [CU] (H-GQEHPNARKYKGANQQGLSKGCFGLKLDRIGSMSGLGC-OH; disulfide 22-38 (inferred); N-terminus and C-terminus assumed) | 9% | 57% | 
8 | PEO24-CNP22, K4R: CNP22, K4R conjugated at the N-terminus to PEO24 (PEO24-GLSRGCFGLKLDRIGSMSGLGC; disulfide 6-22 (inferred); UniProt P23582 105-126, looked up, variant K4R) |  |  | cGMP Response rel. to 1 uM CNP22, 10 nM [1]: 15; cGMP Response rel. to 1 uM CNP22, 1 uM [2]: 56
9 | CC[C@H](C)[C@@H]1NC(=O)[C@H](CCCNC(=N)N)NC(=O)[C@H](CC(=O)O)NC(=O)[C@H](CC(C)C)NC(=O)[C@H](CCCCN)NC(=O)[C@H](CC(C)C)NC(=O)CNC(=O)[C@H](Cc2ccccc2)NC(=O)[C@@H](NC(=O)CNC(=O)[C@H](CCCNC(=N)N)NC(=O)[C@H](CO)NC(=O)[C@H](CC(C)C)NC(=O)CN)CSSC[C@@H](C(=O)O)NC(=O)CNC(=O)[C@H](C(C)C)NC(=O)CNC(=O)[C@H](CO)NC(=O)[C@H](CCSC)NC(=O)[C@H](CO)NC(=O)CNC1=O [AJ] (H-GLSRGCFGLKLDRIGSMSGVGC-OH; disulfide 6-22 (inferred); N-terminus and C-terminus assumed) | 0.2% | 8% | 
10 | CC[C@H](C)[C@@H]1NC(=O)[C@H](CCCNC(=N)N)NC(=O)[C@H](CC(=O)O)NC(=O)[C@H](CC(C)C)NC(=O)[C@H](CCCCN)NC(=O)[C@H](CC(C)C)NC(=O)CNC(=O)[C@H](Cc2ccc(O)cc2)NC(=O)[C@@H](NC(=O)CNC(=O)[C@H](CCCNC(=N)N)NC(=O)[C@H](CO)NC(=O)[C@H](CC(C)C)NC(=O)CN)CSSC[C@@H](C(=O)O)NC(=O)CNC(=O)[C@H](CC(C)C)NC(=O)CNC(=O)[C@H](CO)NC(=O)[C@H](CCSC)NC(=O)[C@H](CO)NC(=O)CNC1=O [Z] (H-GLSRGCYGLKLDRIGSMSGLGC-OH; disulfide 6-22 (inferred); N-terminus and C-terminus assumed) | 2% | 18% | 
